Like-named read-outs stand apart in the source and are kept apart here.
Legend:
[1] = system: USP2, USP10, USP16, USP21, USP22, USP25, USP28, USP35, USP46; test: DUB biochemical IC50 assays, nine DUBs; conditions: for fold more potent against USP30 than against the nine DUBs, minimum: lowest of USP2, USP10, USP16, USP21, USP22, USP25, USP28, USP35, USP46; for DUB selectivity preference for USP30 v 9 DUBs / IC50: range over the nine DUBs; for IC50: Ref. Ex. C excl. USP22, Ref. Ex. D excl. USP2, 46
Cathepsins B, K, L, S, V = test: Cathepsin IC50, range over B, K, L, S, V; format: biochemical; conditions: for fold more potent against USP30 than against the cathepsins, minimum: lowest of cathepsins B, S and V; for fold more potent against USP30 than against the cathepsins, minimum / Selectivity preference for USP30 v cathepsins: K, L; for Selectivity preference for USP30 v cathepsins: range over cathepsins B, S; for IC50: range over the five cathepsins
Cathepsin V = Cathepsin V (Homo sapiens, UniProt O60911); test: Cathepsin IC50, cathepsin V; format: biochemical
Cathepsin K = biological target: T1, Cathepsin K (Homo sapiens, UniProt P43235); test: Cathepsin IC50, cathepsin K; format: biochemical
T1 sequence (P43235 115-329): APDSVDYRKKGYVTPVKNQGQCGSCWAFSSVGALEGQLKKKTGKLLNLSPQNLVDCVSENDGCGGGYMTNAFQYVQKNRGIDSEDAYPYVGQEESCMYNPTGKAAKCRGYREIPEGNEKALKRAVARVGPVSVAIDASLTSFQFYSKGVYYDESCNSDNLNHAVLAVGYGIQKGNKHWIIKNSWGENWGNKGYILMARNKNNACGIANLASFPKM

Cathepsin L = Cathepsin L (Homo sapiens, UniProt P07711); test: Cathepsin IC50, cathepsin L; format: biochemical
Cathepsin B = Cathepsin B (Homo sapiens, UniProt P07858); test: Cathepsin IC50, cathepsin B; format: biochemical
USP30 = biological target: T2, USP30 (Homo sapiens, UniProt Q70CQ3); test: USP30 biochemical IC50 assay (fluorescence polarisation)
T2 construct: purchased Boston Biochem E582
T2 sequence (Q70CQ3 57-517 limits assumed): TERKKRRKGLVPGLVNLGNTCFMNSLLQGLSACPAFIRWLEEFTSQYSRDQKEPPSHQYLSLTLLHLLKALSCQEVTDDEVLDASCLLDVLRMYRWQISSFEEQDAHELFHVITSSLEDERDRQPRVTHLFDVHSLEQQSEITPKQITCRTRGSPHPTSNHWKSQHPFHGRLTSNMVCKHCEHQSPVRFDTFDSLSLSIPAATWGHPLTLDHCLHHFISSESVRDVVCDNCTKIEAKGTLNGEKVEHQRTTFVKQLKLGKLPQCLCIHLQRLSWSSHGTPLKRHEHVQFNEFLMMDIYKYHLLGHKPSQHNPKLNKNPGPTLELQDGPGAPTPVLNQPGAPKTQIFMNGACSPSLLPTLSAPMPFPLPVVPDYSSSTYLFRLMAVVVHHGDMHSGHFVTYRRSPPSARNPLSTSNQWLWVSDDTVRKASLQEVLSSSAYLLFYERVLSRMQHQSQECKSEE
Method: Dilution plates were prepared at 21 times the final concentration (2100 μM for a final concentration of 100 μM) in 50% DMSO in a 96-well polypropylene V-bottom plate (Greiner #651201). A typical 8-point dilution series would be 100, 30, 10, 3, 1, 0.3, 0.1, 0.03 μM final. Reactions were performed in duplicate in black 384 well plates (small volume, Greiner 784076) in a final reaction volume of 21 μl. Either […] of 50% DMSO or diluted compound was added to the plate. USP30 (Boston Biochem #E582) was diluted in reaction buffer (40 mM Tris, pH 7.5, 0.005% Tween 20, 0.5 mg/ml BSA, 5 mM beta-mercaptoethanol) to achieve a final assay concentration of 4 nM, and 10 μl of diluted USP30 was added to the compound. Enzyme and compound were incubated for 30 min at room temp. Reactions were initiated by the addition of 50 nM of TAMRA labelled peptide linked to ubiquitin via an iso-peptide bond as fluorescence polarisation substrate. Reactions were read immediately after addition of substrate and following a 2-hour incubation at room temperature. Readings were performed on a Pherastar Plus (BMG Labtech). λ Excitation 540 nm; λ Emission 590 nm.

Cathepsin S = Cathepsin S (Homo sapiens, UniProt P25774); test: Cathepsin IC50, cathepsin S; format: biochemical
UCHL1 = biological target: T3, UCHL1 (Homo sapiens, UniProt P09936); test: DUB biochemical IC50 assay, UCHL1
T3 sequence (P09936 1-223): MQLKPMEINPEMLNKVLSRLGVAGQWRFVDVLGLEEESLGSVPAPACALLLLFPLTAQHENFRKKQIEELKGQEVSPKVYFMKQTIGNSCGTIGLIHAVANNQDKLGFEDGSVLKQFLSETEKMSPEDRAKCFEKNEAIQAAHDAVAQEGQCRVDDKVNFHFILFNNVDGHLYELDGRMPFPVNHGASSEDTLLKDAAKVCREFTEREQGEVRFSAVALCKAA

Endogenous USP30 = biological target: T4, Endogenous USP30 (Homo sapiens, UniProt Q70CQ3); test: USP30 endogenous cellular target engagement western blot assay (Cell TE WB); format: cell-based; conditions: Hela cells stably overexpressing YFP-Parkin, 1 hour
T4 construct: USP30 endogenous cellular target engagement western blot (WB) assay; endogenous in cells; host or cells: HeLa stably overexpressing YFP-Parkin
T4 sequence (Q70CQ3 1-517): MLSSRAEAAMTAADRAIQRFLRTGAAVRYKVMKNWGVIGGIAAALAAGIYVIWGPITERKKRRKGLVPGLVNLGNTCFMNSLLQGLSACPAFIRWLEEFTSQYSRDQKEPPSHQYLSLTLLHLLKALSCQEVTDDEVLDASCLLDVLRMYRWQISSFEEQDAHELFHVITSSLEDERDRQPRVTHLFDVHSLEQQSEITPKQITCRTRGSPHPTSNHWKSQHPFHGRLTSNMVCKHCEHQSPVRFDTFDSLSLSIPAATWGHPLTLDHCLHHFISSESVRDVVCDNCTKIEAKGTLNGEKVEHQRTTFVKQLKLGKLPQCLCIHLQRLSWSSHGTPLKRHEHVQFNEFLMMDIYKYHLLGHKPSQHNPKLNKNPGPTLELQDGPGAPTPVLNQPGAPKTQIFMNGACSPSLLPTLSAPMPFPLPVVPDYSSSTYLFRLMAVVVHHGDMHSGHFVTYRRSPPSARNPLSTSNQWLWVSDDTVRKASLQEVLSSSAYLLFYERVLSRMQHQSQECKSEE
Method: Hela cells stably overexpressing YFP-Parkin were seeded into 6 well dishes. Once adhered, cells were treated with appropriate concentrations of test compounds or vehicle control for 1 hour at 37° C., 5% CO2. Whole cell lysates were prepared by scraping the cells into cold PBS, centrifuging and lysing in lysis buffer (50 mM Tris-base, pH 7.5, 50 mM NaCl, 1% NP-40/Igepal CA-630, 2 mM MgCl2, 10% Glycerol, 5 mM beta-mercaptoethanol, cOmplete mini tablets EDTA free (Roche), PhosStop tablets (Roche)) for 10 mins. The equivalent of 20 μg of protein from the cleared cell lysate was incubated with a final conc of 2.5 μM HA-Ahx-Ahx-Ub-VME probe at room temperature. The reaction was stopped by addition of 5×SDS sample loading buffer and proteins separated by SDS PAGE and western blotting. USP30 was detected using an anti-USP30 Sheep S746D antibody (MRC PPU Reagents and Services) and a rabbit anti sheep secondary IgG (H+L) horseradish peroxidase conjugated (Thermo #31480) and visualised using ECL reagent (GE #RPN2109) on a GE LAS4000 imager. Target engagement was measured by quantitation of the bands corresponding to USP30 and USP30 bound to the Ub-VME probe and expression of this proportion compared to vehicle treated control.
Cell TE WB: USP30 endogenous cellular target engagement western blot (WB) assay. Assays the activity of compounds against USP30 in cells using an irreversible activity probe to monitor USP30 activity.

[2] = Reference Examples, read-out: USP30 IC50

Chain of Cathepsin S (P25774 115-331, species assumed): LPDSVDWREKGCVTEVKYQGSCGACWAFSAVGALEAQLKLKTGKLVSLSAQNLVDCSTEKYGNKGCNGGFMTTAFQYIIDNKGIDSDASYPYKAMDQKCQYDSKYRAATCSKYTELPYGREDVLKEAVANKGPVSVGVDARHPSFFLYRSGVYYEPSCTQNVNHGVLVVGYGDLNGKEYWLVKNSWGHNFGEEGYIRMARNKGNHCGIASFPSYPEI
Chain of Cathepsin L (P07711 114-333, species assumed): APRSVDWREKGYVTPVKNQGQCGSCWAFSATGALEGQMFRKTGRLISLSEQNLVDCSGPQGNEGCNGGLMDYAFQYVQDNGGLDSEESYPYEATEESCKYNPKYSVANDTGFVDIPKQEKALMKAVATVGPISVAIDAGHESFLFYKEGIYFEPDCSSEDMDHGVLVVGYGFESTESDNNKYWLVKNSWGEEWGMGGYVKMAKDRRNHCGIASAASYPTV
Chain of Cathepsin V (O60911 114-334, species assumed): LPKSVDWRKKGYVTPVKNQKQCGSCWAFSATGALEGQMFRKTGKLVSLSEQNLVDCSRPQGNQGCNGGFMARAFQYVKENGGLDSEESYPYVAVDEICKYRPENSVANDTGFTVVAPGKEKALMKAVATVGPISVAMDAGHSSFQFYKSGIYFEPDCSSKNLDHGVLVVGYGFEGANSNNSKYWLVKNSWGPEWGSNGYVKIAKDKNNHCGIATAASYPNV

Row | Structure (SMILES) | fold more potent against USP30 than against the nine DUBs, minimum [1] [fold] | DUB selectivity preference for USP30 v 9 DUBs [1] | IC50 [1] [µM] | fold more potent against USP30 than against the cathepsins, minimum (Cathepsins B, K, L, S, V) [fold] | Selectivity preference for USP30 v cathepsins (Cathepsins B, K, L, S, V) | IC50 (Cathepsins B, K, L, S, V) [µM] | IC50 (Cathepsin V) [µM] | IC50 (Cathepsin K) [µM] | IC50 (Cathepsin L) [µM] | IC50 (Cathepsin B) [µM] | IC50 (USP30; [2]) [µM] | IC50 (Cathepsin S) [µM] | IC50 (UCHL1) [µM] | fold more potent against USP30 than UCHL1 (UCHL1) [fold] | IC50 (USP30; read-out: DUB IC50 (μM) USP30) [µM] | EC50 (Endogenous USP30) [nM] | DUB selectivity preference for USP30 v UCHL1 (UCHL1) | IC50 (USP30; USP30 biochemical IC50 assay, exemplary compounds, read-out: IC50) [µM]
1 | C[C@H]1CN(C#N)C[C@@H]1NC(=O)c1cnc(-c2ccccc2)s1 [C, reference compound] | 0.96 | 0.96-342 | 0.025 to 8.9 | 58 | 58-227 | 1.5 to 5.9 | 4 | 2.4 | 1.5 | 4.8 | 0.026 | 5.9 |  |  |  |  |  | 
2 | N#CN1CCC(NC(=O)c2cc(-c3cccc(Cl)c3)no2)C1 (centres unmarked) [B, reference compound] | 8 | 8-232 | 0.35 to 10.2 | 18 | 18-95 | 0.79 to 4.2 | 4.2 | 1.1 | 0.79 | 2.9 | 0.044 | 2.3 |  |  |  |  |  | 
3 | N#CN1CC[C@H](C(=O)Nc2ncc(-c3ccccc3)s2)C1 [E, reference compound] |  |  |  | 3.2 | 3.2-17 | 1 to 5.3 |  | 2.7 | 1 | 5.3 | 0.31 |  | 0.25 | 0.8 | 0.31 |  |  | 
4 | COC[C@@H]1C[C@@H](NC(=O)c2nnc(-c3cccc(C#N)c3)o2)CN1C#N [Example 2, N-((3R,5S)-1-Cyano-5-(methoxymethyl)pyrrolidin-3-yl)-5-(3-cyanophenyl)-1,3,4-oxadiazole-2-carboxamide] |  | 186-8100 | ≥ 6.9 |  | 880-8100 | 32.8 to 300 | > 300 | 113 | 32.8 | > 300 |  | > 300 | > 300 |  |  | 89 | 8100 | 0.037
